Assay results: US11679158B2, “Biodegradable lipids for the delivery of active agents” (ALNYLAM PHARMACEUTICALS, INC., priority 2011, dated 2023)

Experiments:
[1] = Lipid nanoparticle size by dynamic laser light scattering before and after overnight dialysis; assay type: physicochemical; conditions: intensity weighted diameter, LNP with AD-1661; for LNPs Size (nm) change: size after dialysis: after overnight dialysis; for LNPs Size (nm) change: size before dialysis: before overnight dialysis
Protocol: The size of the lipid nanoparticles was measured before and after undergoing dialysis overnight. In general, greater changes in lipid nanoparticle size are indicative of lesser stability.
Dynamic laser light scattering was used to determine the lipid nanoparticle size (expressed as the intensity weighted diameter) with a Zetasizer (Malvern Instruments, Inc. of Westborough, Mass.). All measurements were made at 532 nm wavelength at the scattering angle of 173° using normal resolution mode as the analysis model.

[2] = HPLC retention time of cationic lipid in lipid nanoparticles relative to cholesterol; assay type: physicochemical; conditions: HPLC retention time of lipid in LNP (AD-1661 payload) relative to cholesterol; in min (unit assumed)
Protocol: Furthermore, the HPLC retention time for each biodegradable cationic lipid was measured in lipid nanoparticles prepared from them. The lipid nanoparticles were prepared as described in Example 35 using AD-1661 as the payload. The retention times are reported in the table below relative to the retention time for cholesterol.
The HPLC buffer used was a mixture of two solutions (Solution #1 and Solution #2). • Solution #1: 80% methanol/20% 10 mM NH4HCO3 • Solution #2: 80% methanol/20% isopropanol

Row | Compound | LNPs Size (nm) change: size after dialysis [1] | LNPs Size (nm) change: size before dialysis [1] | t(lipid) − t(chol) [2]
1 | CCCCCC(CCCCC)CCOC(=O)CCCCCCCC(CCCCCCCC(=O)OCCC(CCCCC)CCCCC)OC(=O)CCCN(C)C | 56 -> 56 nm | 56 -> 56 nm | 2.365
2 | CC(C)CCC(CCOC(=O)CCCCCCCCCC(CCCCCCCCCC(=O)OCCC(CCC(C)C)C(C)C)OC(=O)CCCN(C)C)C(C)C (stereo not drawn) | – | – | 2.106
3 | CCCCCCCC/C=C\COC(=O)CCCCCCCC(CCCCCCCC(=O)OC/C=C\CCCCCCCC)OC(=O)CCCN(C)C | 67 nm | 60 nm | 1.44
4 | CCCCCC/C=C\COC(=O)C(C)CCCCCCC(CCCCCCC(C)C(=O)OC/C=C\CCCCCC)OC(=O)CCCN(C)C (stereo not drawn) | 77 nm | 73 nm | 0.848
5 | CN(C)CCCC(=O)OC(CCCCCCCC/C=C\CCCCCCCC(=O)OCC(C)(C)C)CCCCCCCC/C=C\CCCCCCCC(=O)OCC(C)(C)C | – | – | 2.707
6 | CCCCCC(CCCCC)CCOC(=O)CCCCCCCCCC(CCCCCCCCCC(=O)OCCC(CCCCC)CCCCC)OC(=O)CCCN(C)C | – | – | 3.178
7 | CC(C)CCC(COC(=O)CCCCCCCCCC(CCCCCCCCCC(=O)OCC(CCC(C)C)C(C)C)OC(=O)CCCN(C)C)C(C)C (stereo not drawn) | 60 nm | 59 nm | 1.751
8 | CCCCCCCCCC/C=C\COC(=O)CCCCCCCC(CCCCCCCC(=O)OC/C=C\CCCCCCCCCC)OC(=O)CCCN(C)C | 67 nm | 68 nm | 2.219
